Assay results taken from publication PMC10354055, “An optimized Nurr1 agonist provides disease-modifying effects in Parkinson’s disease models” (Nature Communications, 2023).
Where “and” joins values, the source holds several entries; their conditions need not be identical. Equal entries are not always repeated.

Key:
MPTP-induced male mice = assay: IHC of Iba-1+ microglia in STR and SNpc, MPTP-induced mice; format: in vivo, mouse; settings: MPTP-induced mice, individual animal values
Experimental: MPTP (Sigma-Aldrich) was intraperitoneally (i.p.) injected (30 mg/kg) for 5 days (Day 1-5). […] To test dyskinetic involuntary behavior, an L-DOPA injected group was included, which received 50 mg/kg of L-DOPA and 15 mg/kg of benserazide (Sigma-Aldrich) (i.p.) for 16 days (Day 1–16). All compounds were administered 6 h post-MPTP injection to avoid any effect of compounds on the MPTP metabolism in the brain. Motor and non-motor related behavior tests were performed on the following days as described in Fig. 4a in an assessor- and observer-blinded fashion. Pre-training and baseline setup for motor-related behaviors were performed 3 days prior to the injections. Mice were sacrificed and subjected to immunohistochemistry. Mice were housed at the Animal Care Facilities of McLean Hospital under a 12-h light/12-h dark cycle, ambient temperature and humidity. Animals were handled in accordance with McLean Hospital’s Institutional Animal Care and Use Committee (Protocol #: 2015N000002) and followed National Institutes of Health guidelines.
Images were acquired using a KEYENCE microscope and quantified as the number or optical density of immunoreactive cells using ImageJ software.
The numbers of TH^+ DA neurons, NeuN^+ neurons, pS129 αSyn^+ cells in the SN and Iba-1^+ microglia in the SN and striatum were stereologically counted in six coronal sections (30 µm thickness) taken every 6th section (180 µm intervals) for each brain. The boundaries of the SN and striatum were delimited at low magnification (4X) to estimate each total area. Immunoreactive cells were counted with images taken at high magnification (×40) by a single blinded investigator. The group mean of the total number of immunoreactive cells from each brain was transformed as percentage of the number in the control group (%). For AAV-αSyn-induced mice, the group mean of the total number of cells in the ipsilateral side was transformed as a percentage of that observed in the contralateral side.

Nurr1 mRNA = Nurr1 mRNA level, qRT-PCR, MN9D cells; format: cell-based, mouse; settings: MPP+ or αSyn overexpression
Experimental: (§1) Total RNA was extracted using the GeneJET RNA Purification Kit (Thermo Fisher Scientific) and 100 ng of RNA was subjected to cDNA synthesis using Invitrogen Superscript cDNA Synthesis Kit (Invitrogen) according to the manufacturer’s protocol. qRT-PCR was performed using a CFX Connect Real-Time System (Bio-Rad) in a 20 μl volume mixture containing 2X SsoAdvanced Universal SYBR Green Supermix (Bio-Rad), 100 ng/μl of forward and reverse primers, and 1 μl of cDNA sample. Gene expression levels were quantified by the 2^∆∆CT method (Ct of target gene—Ct of glyceraldehyde-3-phosphate dehydrogenase (GAPDH). The following primers were used for qRT-PCR: TH forward: 5′-[…]-3′, reverse: 5′-[…]-3′; DAT forward: 5′-[…]-3′, reverse: 5′-[…]-3′; AADC forward: 5′-[…]-3′, reverse: 5′-[…]-3′; VMAT2 forward: 5′-[…]-3′, reverse: 5′-[…]-3′; c-Ret forward: 5′-[…]-3′, reverse: 5′-[…]-3′; TNFα forward: 5′-[…]-3′; reverse: 5′-[…]-3′; GAPDH, forward 5′-[…]-3′, reverse 5′-[…]-3′.
(§2) Lenti-GFP, -αSyn^WT, and -αSyn^A53T viruses were generated separately by co-transfecting each shuttle plasmid with lentivirus packaging plasmids into HEK293T cells using lipofectamine 2000 (Invitrogen). Briefly, 2 μg each FUW inducible shuttle plasmid, 2 μg FUW-rtTA, 2 μg psPax2 and 1.5 μg MD2.G were mixed and transfected into HEK293T cells. After 48 h, viral supernatants were collected and centrifuged at 1000g for 10 min, and subsequently filtered through a 0.45 μm filter. Lentiviruses were transduced into MN9D cells with 8 μg/ml of polybrene and the viral supernatant was removed and replaced with fresh medium a day after transduction.

Nurr1 protein = Nurr1 protein level, Western blot, MN9D cells with MPP+ or αSyn overexpression; format: cell-based, mouse; settings: against MPP+ and αSynWT overexpression
Experimental: Experiments were confirmed by duplicate measurements of the same sample. Quantification of immunoreactive bands was performed using ImageJ software (NIH, Bethesda, MD, USA) and expressed as a relative ratio against β-actin.
as §2

MN9D cells = assay: Dopaminergic gene expression (TH, DAT, AADC, VMAT2, c-Ret), qRT-PCR, MN9D cells with MPP+; format: cell-based, mouse; settings: MN9D, decreased by MPP+
Experimental: as §1

For `CCN(CC)CCCC(C)Nc1ccnc2cc(Cl)ccc12` (centres unmarked) [CQ, chloroquine], the “Iba-1+ cells in STR (% of control)” value (MPTP-induced male mice; Figure 4m) was 156.51 % of control and 147.74 % of control and 143.13 % of control and 144.76 % of control and 151.54 % of control and 162.57 % of control and 147.11 % of control and 149.46 % of control, the “Iba-1+ cells in SNpc (% of control)” value (MPTP-induced male mice; Figure 4n) was 165.17 % of control and 275.28 % of control and 277.25 % of control and 239.89 % of control and 248.74 % of control and 269.38 % of control and 278.23 % of control and the “Nurr1 mRNA levels (in words)” value (Nurr1 mRNA) was “did not alter”. For the same compound, the “Nurr1 protein levels (in words)” value (Nurr1 protein) was “significantly restored” and the “dopaminergic gene expression (in words)” value (MN9D cells) was “significantly rescued”.
